Data on two compounds can be found in patent publication US4923882A, “Novel amine derivatives, salts thereof and an anti-ulcer agent containing the same” (Toyama Chemical Co., Ltd., priority 1982, dated 1990).

The structures appear in SMILES notation. Read-outs that look alike come from different tables or passages of the source.

The test system of series [1] is gastric acid secretion. As to the kind of experiment: Inhibitory effect on gastric acid secretion, perfused stomach preparation of anesthetized rat (histamine stimulated). The settings on record: intravenous; for Duration: time from complete inhibition until pH of perfusate became 4. It is filed as in vivo, Wistar strain rats. The method in brief:
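Urethane-anesthetized, 18 h-fasted male Wistar rats (200 to 250 g); stomach perfused at 1 ml/min with saline at pH about 10, with perfusate pH recorded continuously under iv histamine 30 μg/kg/min. Drug given iv cumulatively once secretion steady (pH 3.3±0.2), each dose after a plateau; n=3 per dose.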

Series [2] relates to gastric acid secretion. Kind of series: Inhibitory effect on gastric acid secretion, pylorus ligation method (histamine). It is filed as in vivo, Wistar strain rats. The settings on record: Rattus norvegicus, read-out: Inhibition percentage (gastric acid secretion). The method, boiled down: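 Male Wistar rats (190–230 g, 5–6/group) fasted 35 h, dosed orally; pylorus ligated under ether 2 h later. Stomach removed after 3 h, gastric juice volume measured and acidity titrated with 0.1N NaOH to pH 7.0. Percent inhibition calculated against saline controls.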

The subject of series [3] is isolated guinea pig atrium. As to the kind of experiment: Effect on isolated guinea pig atrium (histamine-induced heart rate). Set-up: species or system Hartley guinea pig. The settings on record: for Potency ratio: Cimetidine = 1; for IC50: right atrium, 5×10^-6 M histamine, 30° C., read-out: ID50 (the source's name). The protocol: Hartley guinea pig (male, 300 to 400 g) was killed by blood-letting, immediately after which the heart was isolated, and the right atrium was separated in a Krebs-Henseleit solution and used as a preparation. […] The preparation was trained in a bath fluid, and after the heart rate became constant, 5×10^-6 M of histamine was administered. After the heart rate became constant, each drug was administered cumulatively.
The inhibition percentage was determined from the following equation: [formula] HRmin : heart rate before the administration of histamine HRmax : heart rate after the administration of histamine
HRx : heart rate at the time of the administration of each drug.
The number of experiments were five for each dose.

In a further series the test system is Indomethacin ulcer. As to the kind of experiment: Anti-ulcer activity: Indomethacin ulcer. The class given is in vivo, Wistar strain rats. As to conditions: for ED50: 5 h. The protocol:
Six Wistar strain rats (male, 200 to 250 g) per group were starved for 24 hours, after which each drug was orally administered, and after 30 minutes, Indomethacin was injected subcutaneously at a dose of 30 mg/kg. After 5 hours, each rat was killed, and the stomach was removed and fixed with 3% formalin, after which the lengths of ulcers formed in the stomach was measured under the binocular stereoscopic microscope (10×), and the sum total of the lengths was taken as the ulcer index. To a control group was administered 0.5% Tween 80 physiological saline. The inhibition percentage was determined from the following equation: [formula]

For series [4], the system named is Mepirizole-induced duodenal ulcer. As to the kind of experiment: Anti-ulcer activity: Mepirizole-induced duodenal ulcer. The class given is in vivo, Wistar strain rats. The settings on record: for rats died: in mepirizole test; for ED50: Rattus norvegicus, 18 h. The protocol: (ii) Mepirizole-induced duodenal ulcer
A test was carried out according to the method of Okabe et al. [S. Okabe et al., Gastrcenterology, 80, 1241 (1981)].
Six Wistar strain rats (male, 200 to 250 g) per group were starved for 24 hours, after which each drug was orally administered, and after 30 minutes, mepirizole was injected subcutaneously at a dose of 200 mg/kg. After 18 hours, the stomach and duodenum were removed and fixed with 3% formalin, after which the areas and depths of the ulcers formed in the duodenum were measured under the binocular stereoscopic microscope (10×). The scores were given in 7 grades depending on the areas and depths of the ulcers, and the sum total of the scores was taken as the ulcer index. The scores were given as follows:
That is to say, the score is 0 at an ulcer area of 0 to 0.2 mm^2, 1 at 0.2 to 1.0 mm^2, 2 at 1 to 3 mm^2, 3 at 3 to 6 mm^2, 4 at 6 to 10 mm^2,5 at 10 mm^2 or more, the ulcer in the condition immediately before perforation is scored as 6, and the ulcer which had caused perforation is scored as 7.
(§1) To a control group was administered 0.5% Tween 80 physiological saline. The inhibition percentage was determined from the following equation: [formula]

The test system of series [5] is Stress ulcer induced by water-immersion. Kind of series: Anti-ulcer activity: Stress ulcer induced by water-immersion. The class given is in vivo, Wistar rats. As to conditions: for ED50: Rattus norvegicus, 15 h. The method, then:
(iii) Stress ulcer induced by water-immersion
An experiment was carried out according to the method of Takagi et al. [K. Takagi et al., Jap.
Six Wistar rats (male, 230 to 280 g) per group were starved for 24 hours, after which each drug was orally administered. After 30 minutes, the rats were placed in stress cage, immersed in water at 23° C. to the depth of xiphoid, and allowed to stand therein for 15 hours. Thereafter, the stomach of each rat was removed and then fixed with 3% formalin, after which the areas of the ulcers formed were measured under the binocular stereoscopic microscope (10×), and the sum total of the areas was taken as the ulcer index. To a control group was administered 0.5% Tween 80 physiological saline.
The inhibition percentage was determined from the following equation: [formula]

For another series, the system named is Reserpine ulcer. As to the kind of experiment: Anti-ulcer activity: Reserpine ulcer. The class given is in vivo, Wistar strain rats. As to conditions: oral. The protocol: An experiment was carried out according to the method of Adami et al. [E. Adami et al., Arch. int.
Ten Wistar strain rats (male, 180 to 200 g) per group were starved for 30 hours, after which each drug was orally administered, and after 1 hour, reserpine was injected subcutaneously at a dose of 10 mg/kg. After 18 hours, the stomach was removed and fixed with 3% formalin, and thereafter the lengths of the ulcers formed in the stomach were measured with callipers. The measured values were converted to the scores described below, and the sum total of the scores was taken as the ulcer index.
That is to say, 1 to 5 pin point ulcers are scored as 1, 6 or more pin point ulcers are scored as 2, ulcers of 1 mm or less in length are scored as 1, ulcers of 1 to 2 mm in length are scored as 2, ulcers of 2 to 4 mm in length are scored as 4, and ulcers of 4 mm or more in length are scored as 8.
as §1

The mark [6] stands for this setting: Rattus norvegicus, po, read-out: Inhibition percentage.

In the case of `CN/C(=N/CCSCc1nc[nH]c1C)NC#N` [Cimetidine, reference compound], the Duration in the series on gastric acid secretion [1] is recorded as 16 min. Besides, the inhibition in vivo at 10 mg/kg with gastric acid secretion [2] (po) worked out at 39%; with Indomethacin ulcer (setting [6]), 18%. Besides, the inhibition in vivo at 30 mg/kg came out at 60% in the series with gastric acid secretion [2] (po) and 50% in the series with Indomethacin ulcer (setting [6]). Moreover, the inhibition in vivo at 90 mg/kg with gastric acid secretion [2] (po) was determined as 97%. For the same compound, in series [3], the Potency ratio is on record as 1. The IC50 in series [3] was found to be 3350 nM. For the same compound, the ED50 with Indomethacin ulcer (Rattus norvegicus, po, read-out: ID50) was determined as 27.5 mg/kg; in series [4] (po, read-out: ID50), 162 mg/kg; in series [5] (po, read-out: ID50), 15.5 mg/kg. Moreover, in the series with Indomethacin ulcer (setting [6]), the inhibition in vivo at 100 mg/kg turned out to be 97%. Besides, the Inhibition percentage worked out at 43% in series [4] (100 mg/kg, oral); 59% in series [4] (300 mg/kg, oral); 22% in series [5] (10 mg/kg, oral); 94% in series [5] (30 mg/kg, oral); 9.7% with Reserpine ulcer (100 mg/kg). Besides, the rats died entry is given as “Two of six rats died” in series [4] (100 mg/kg, oral) and “Four of six rats died” in series [4] (300 mg/kg, oral).

In the case of `COc1cccc(C(O)CNC(=C[N+](=O)[O-])NCCSCc2cc(C)c(CN(C)C)s2)c1` (stereo not shown) [compound 9, N-{2-[[5-(dimethylamino)methyl-4-methyl-2-thienyl]methylthio]ethyl}-N'-[2-hydroxy-2-(3-methoxyphenyl)ethyl]-2-nitro-1,1-ethenediamine], the ED100 in the series with gastric acid secretion [1] (Rattus norvegicus, cumulative, histamine 30 μg/kg/min, read-out: Dose for complete inhibition) was determined as 0.2 mg/kg. The compound further had a Duration in the series with gastric acid secretion [1] of 190 min. In addition, the inhibition in vivo at 1 mg/kg came to 75% in the series on gastric acid secretion [2] (1 mg/kg, oral, histamine 25 mg/kg s.c.) and 70% in the series with Indomethacin ulcer (Rattus norvegicus, 1 mg/kg, oral, read-out: Inhibition percentage). Further, the Potency ratio in series [3] worked out at 13.7; with Indomethacin ulcer (Cimetidine = 1), 39.3; in series [4] (Cimetidine = 1), 37.7; in series [5] (Cimetidine = 1), 9.1. Besides, in series [3], the IC50 was found to be 245 nM. Also, the ED50 with Indomethacin ulcer (Rattus norvegicus, oral, Indomethacin ulcer, read-out: ID50 (the source's name)) was determined as 0.7 mg/kg; in series [4] (oral, mepirizole-induced duodenal ulcer, read-out: ID50 (the source's name)) it was 4.3 mg/kg; in series [5] (oral, water-immersion stress ulcer, read-out: ID50 (the source's name)), 1.7 mg/kg; in the series on Reserpine ulcer (Rattus norvegicus, 18 h, reserpine ulcer, read-out: ID50 (the source's name)), 1.8 mg/kg. For the same compound, the inhibition in vivo at 0.3 mg/kg in the series on Indomethacin ulcer (Rattus norvegicus, 0.3 mg/kg, oral, read-out: Inhibition percentage) amounted to 6%. In addition, the inhibition in vivo at 3 mg/kg with Indomethacin ulcer (Rattus norvegicus, 3 mg/kg, oral, read-out: Inhibition percentage) stood at 85%. For the same compound, in the series with Indomethacin ulcer (Rattus norvegicus, 10 mg/kg, oral, read-out: Inhibition percentage), the inhibition in vivo at 10 mg/kg was 97%. Besides, the Inhibition percentage is on record as -8% in series [4] (1 mg/kg, oral); 33% in series [4] (3 mg/kg, oral); 93% in series [4] (10 mg/kg, oral); 33% in series [5] (1 mg/kg, oral); 66% in series [5] (3 mg/kg, oral); 86% in series [5] (10 mg/kg, oral). The Inhibition percentage in the series on Reserpine ulcer (1 mg/kg) is 29%; with Reserpine ulcer (3 mg/kg), 69%.
